Results as given in US20260374782A1, “NEW COMPOUNDS, PROCESSES FOR PREPARING THE SAME AND THEIR USE AS DRUGS” (B&A ONCOMEDICAL, priority 2022, published 2026).

Biological target: T1, NKCC1 (Homo sapiens, UniProt P55011)
T1 construct: endogenous in cells; host or cells: native HEK293 cells
T1 sequence (P55011 1-1212): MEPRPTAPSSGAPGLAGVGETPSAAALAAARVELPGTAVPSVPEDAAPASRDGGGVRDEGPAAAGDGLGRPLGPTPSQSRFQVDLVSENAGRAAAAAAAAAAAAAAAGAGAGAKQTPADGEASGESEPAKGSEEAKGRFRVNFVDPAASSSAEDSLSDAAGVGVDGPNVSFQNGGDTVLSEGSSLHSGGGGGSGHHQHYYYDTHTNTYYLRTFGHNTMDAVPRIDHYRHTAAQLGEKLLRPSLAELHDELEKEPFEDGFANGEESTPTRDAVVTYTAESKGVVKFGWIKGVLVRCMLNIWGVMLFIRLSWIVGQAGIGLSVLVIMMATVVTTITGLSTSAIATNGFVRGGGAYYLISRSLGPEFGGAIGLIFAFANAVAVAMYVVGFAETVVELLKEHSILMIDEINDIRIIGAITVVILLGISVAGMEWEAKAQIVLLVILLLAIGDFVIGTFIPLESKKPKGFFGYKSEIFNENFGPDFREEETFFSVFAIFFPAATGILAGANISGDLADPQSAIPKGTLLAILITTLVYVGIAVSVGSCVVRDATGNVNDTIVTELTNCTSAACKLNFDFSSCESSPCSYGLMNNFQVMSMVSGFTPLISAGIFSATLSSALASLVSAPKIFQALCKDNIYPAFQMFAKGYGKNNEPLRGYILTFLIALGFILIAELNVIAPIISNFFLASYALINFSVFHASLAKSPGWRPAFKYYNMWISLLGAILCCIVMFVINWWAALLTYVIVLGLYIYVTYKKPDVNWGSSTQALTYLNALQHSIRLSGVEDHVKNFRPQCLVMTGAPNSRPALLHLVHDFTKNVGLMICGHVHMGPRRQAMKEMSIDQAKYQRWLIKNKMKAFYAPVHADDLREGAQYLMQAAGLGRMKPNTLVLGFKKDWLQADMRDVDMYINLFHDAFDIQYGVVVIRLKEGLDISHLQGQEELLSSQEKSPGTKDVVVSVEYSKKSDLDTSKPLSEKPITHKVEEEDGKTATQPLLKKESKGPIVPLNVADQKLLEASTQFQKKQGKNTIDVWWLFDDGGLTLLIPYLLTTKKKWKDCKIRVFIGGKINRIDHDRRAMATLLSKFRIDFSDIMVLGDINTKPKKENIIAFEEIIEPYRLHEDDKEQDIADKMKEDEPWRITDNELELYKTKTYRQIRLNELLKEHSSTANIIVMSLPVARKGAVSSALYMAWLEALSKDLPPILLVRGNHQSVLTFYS
Test: NKCC1-mediated K+ influx (83Rb tracer uptake) in native HEK293 cells, hypertonic saline, 100 μM ouabain
Assay type: cell-based
Settings: HEK293, no drug = 1000, 20 μM bumetanide = 0; for inhibition at 2 µM: read-out: NKCC1 mediated flux inhibition at 2 μM (%); for inhibition at 20 µM: read-out: NKCC1 mediated flux inhibition at 20 μM (%)
Text: The compounds of the invention have been tested for evaluating their potency in inhibiting the NKCC1 channel. The test used is a cellular assay expressing the NKCC1 channel: HEK293 cells are human cells derived from embryonic kidney. The inhibitory activity of the compounds has been evaluated in measuring the modification of the potassium flux at 2 concentrations, as described hereafter in the biological protocol.
HEK293 cells are human cells derived from embryonic kidney. They express at their plasma membranes proteins that transport potassium (K^+). Among these proteins is the Na—K-2Cl cotransporter or NKCC1. This transporter contributes to 40-50% of K^+ influx into the cells. The remaining of K^+ transport is mediated by the Na^+/K^+-ATPase (also known as Na^+ pump or Na^+/K^+ pump), which also contributes some 40-50% of the influx basal flux of 5-10%, which is mainly due to K^+ channels (FIG. 1A). Thus, the HEK293 cell in culture is an ideal model to study the function of NKCC1 and test compounds that inhibits its transport.
The assay to measure NKCC1 function was optimized to obtain the next signal to noise ratio: • a. A slightly hypertonic saline was used to stimulate NKCC1 function. […] By consistent use of this simple manipulation, the NKCC1 signal was enhanced. • b. Ouabain, an inhibitor of the Na^+/K^+ pump, was used at 100 μM. […] A radioactive isotope was used to trace the inward movement of K^+ into the cell (influx). This allowed for highly precise measurements of K^+ influx. Because radioactive isotopes of K^+ had very short half-lives, radioactive isotopes of Rb^+ were used. Rubidium was a monovalent cation which was readily transporter at the K^+ binding site by many transporters and channels. Rb^+ was a congener of K^+, being transported undistinguishably from K^+. ^83Rb (half-life of 83 days) was used since ^86Rb (half-life of 19.6 days) is no longer commercially available. The ^83Rb isotope was used as a tracer, i.e. at a very low amounts to trace the movement of K^+.
K^+ influx measured in native HEK293 was in the range of 7000-9000 pmoles K^+ per mg protein per min. In the presence of 20 μM Ref 1, the flux was reduced to 600-900 pmoles K^+ per mg protein per min. Thus, there was a very solid dynamic range. In each experiment, the flux without Ref 1 was set at 1000 (equivalent to 100.0%) and the flux with 20 μM bumetanide was set at 0 (equivalent to 0%).
For the flux experiments, 35-mm culture dishes were coated with 0.1 mg/mL poly-L-lysine and placed in large 20×20 [square] dishes. For convenience, the poly-L-lysine was placed in the dishes the day before the experiment. Before plating the cells, the poly-L-lysine was aspirated, and each dish washed twice with 1 mL sterile water. Cells from 3 confluent 10-cm dishes were detached with trypsin and resuspended into 49 mL complete medium. Cells (2 mL/35-mm dish) were plated in 24 dishes and allowed to attach for at least 2 hours prior to the flux. This setup allowed the measurement of 8 conditions in triplicates. For the flux, culture medium was aspirated and replaced with 1 mL saline for a preincubation period of 15 min. The saline was aspirated and replaced with 1 mL identical saline containing 0.25 μCi/mL 83Rb for 15 min. Following the uptake period, the radioactive solution was aspirated, and the cells washed 3 times with ice-cold saline. Cells were then lyzed with 500 μl 0.25N NaOH for 1 hour, neutralized with 250 μL glacial acetic acid and 300 μL and 30 μL aliquots were used for μ-scintillation counting and protein assays, respectively. Two 5 μL of each flux solution was used to determine cpm and relate those cpm to nmoles K^+. Potassium influx was expressed in nmoles K^+ per mg protein per min. Note that within an experiment, groups of 3 dishes were separated 2 min apart for easy handling. Also note that since all dishes were plated with a homogeneous cell suspension, and all dishes were identical, the protein content was measured from a subset of dishes. […]

Row | SMILES | inhibition at 2 µM [%] | inhibition at 20 µM [%]
1 | CCCCNc1cc(C(=O)O)cc(S(=N)(=O)NCCOC)c1Oc1ccccc1 (centres unmarked) [Compound 59, 3-(butylamino)-5-[(2-methoxyethylamino)sulfonimidoyl]-4-phenoxy-benzoic acid] | – | 50 to 75
2 | CCCCNc1cc(C(=O)O)cc(S(=N)(=O)N2CCOCC2)c1Oc1ccccc1 (centres unmarked) [Compound 56, 3-(butylamino)-5-(morpholinosulfonimidoyl)-4-phenoxy-benzoic acid] | – | 30 to 50
3 | CCCCNc1cc(C(=O)OC)cc(S(=N)(=O)NCCOC)c1Oc1ccccc1 (centres unmarked) [Compound 9, methyl 3-(butylamino)-5-[(2-methoxyethylamino)sulfonimidoyl]-4-phenoxy-benzoate] | – | 10 to 30
4 | CCCCNc1cc(C(=O)O)cc(S(=N)(=O)NC2CC2)c1Oc1ccccc1 (centres unmarked) [Compound 60, 3-(butylamino)-5-[(cyclopropylamino)sulfonimidoyl]-4-phenoxy-benzoic acid] | 10 to 30 | 50 to 75
5 | CCCCNc1cc(C(=O)NCCC(F)(F)F)cc(S(=N)(=O)Nc2ccccc2)c1Oc1ccccc1 (centres unmarked) [Compound 120, 3-(anilinosulfonimidoyl)-5-(butylamino)-4-phenoxy-N-(3,3,3-trifluoropropyl)benzamide] | 30 to 50 | 30 to 50
6 | CCCCNc1cc(C(=O)OC)cc(S(=N)(=O)N2CC3CCC(C2)O3)c1Oc1ccccc1 (centres unmarked) [Compound 20, methyl 3-(butylamino)-5-(8-oxa-3-azabicyclo[3.2.1]octan-3-ylsulfonimidoyl)-4-phenoxy-benzoate] | – | 10 to 30
7 | CCCCNc1cc(C(=O)O)cc(S(=N)(=O)N2CC3CCC(C2)O3)c1Oc1ccccc1 (centres unmarked) [Compound 69, 3-(butylamino)-5-(8-oxa-3-azabicyclo[3.2.1]octan-3-ylsulfonimidoyl)-4-phenoxy-benzoic acid] | 50 to 75 | 50 to 75
8 | CCCCNc1cc(C(=O)OC)cc(S(=N)(=O)Nc2cccc(OC)c2)c1Oc1ccccc1 (centres unmarked) [Compound 17, methyl 3-(butylamino)-5-[(3-methoxyanilino)sulfonimidoyl]-4-phenoxy-benzoate] | 10 to 30 | 30 to 50
9 | CCCCNc1cc(C(=O)O)cc(S(=N)(=O)Nc2ccnnc2)c1Oc1ccccc1 (centres unmarked) [Compound 93, 3-(butylamino)-4-phenoxy-5-[(pyridazin-4-ylamino)sulfonimidoyl]benzoic acid] | 30 to 50 | ≥ 75

The remaining lines, values ahead:

Row | inhibition at 2 µM [%] | inhibition at 20 µM [%] | SMILES
10 | 30 to 50 | 30 to 50 | CCCCNc1cc(C(=O)OC)cc(S(=N)(=O)Nc2cccc(Cl)c2)c1Oc1ccccc1 (centres unmarked) [Compound 22, methyl 3-(butylamino)-5-[(3-chloroanilino)sulfonimidoyl]-4-phenoxy-benzoate]
11 | 10 to 30 | 10 to 30 | CCCCNc1cc(C(=O)NCC(F)(F)F)cc(S(=N)(=O)NCc2cccc(Cl)c2)c1Oc1ccccc1 (centres unmarked) [Compound 119, 3-(butylamino)-5-[[(3-chlorophenyl)methylamino]sulfonimidoyl]-4-phenoxy-N-(2,2,2-trifluoroethyl)benzamide]
12 | 10 to 30 | 50 to 75 | CCCCNc1cc(C(=O)O)cc(S(C)(=N)=O)c1Oc1ccccc1 (centres unmarked) [Compound 130, 3-(butylamino)-5-(methylsulfonimidoyl)-4-phenoxy-benzoic acid]
13 | – | 50 to 75 | CCCCNc1cc(C(=O)O)cc(S(=N)(=O)Nc2nccn2C)c1Oc1ccccc1 (centres unmarked) [Compound 88, 3-(butylamino)-5-[[(1-methylimidazol-2-yl)amino]sulfonimidoyl]-4-phenoxy-benzoic acid]
14 | 10 to 30 | 50 to 75 | CCCCNc1cc(C(=O)OC)cc(S(=N)(=O)NCc2ccccc2)c1Oc1ccccc1 (centres unmarked) [Compound 8, methyl 3-[(benzylamino)sulfonimidoyl]-5-(butylamino)-4-phenoxy-benzoate]
15 | 50 to 75 | ≥ 75 | CCCCNc1cc(C(=O)O)cc(S(=N)(=O)Nc2ccn(C)n2)c1Oc1ccccc1 (centres unmarked) [Compound 67, 3-(butylamino)-5-[[(1-methylpyrazol-3-yl)amino]sulfonimidoyl]-4-phenoxy-benzoic acid]
16 | 30 to 50 | ≥ 75 | CCCCNc1cc(C(=O)O)cc(S(=N)(=O)NCc2ccccc2)c1Oc1ccccc1 (centres unmarked) [Compound 58, 3-[(benzylamino)sulfonimidoyl]-5-(butylamino)-4-phenoxy-benzoic acid]
17 | 30 to 50 | 50 to 75 | CCCCNc1cc(C(=O)O)cc(S(=N)(=O)NC2CCN(C)CC2)c1Oc1ccccc1 (centres unmarked) [Compound 79, 3-(butylamino)-5-[[(1-methyl-4-piperidyl)amino]sulfonimidoyl]-4-phenoxy-benzoic acid]
18 | 30 to 50 | ≥ 75 | CCCCNc1cc(C(=O)O)cc(S(=N)(=O)N2CCCC2)c1Oc1ccccc1 (centres unmarked) [Compound 53, 3-(butylamino)-4-phenoxy-5-(pyrrolidin-1-ylsulfonimidoyl)benzoic acid]
19 | 30 to 50 | 10 to 30 | CCCCNc1cc(C(=O)OC)cc(S(=N)(=O)NCc2cccc(Cl)c2)c1Oc1ccccc1 (centres unmarked) [Compound 23, methyl 3-(butylamino)-5-[[(3-chlorophenyl)methylamino]sulfonimidoyl]-4-phenoxy-benzoate]
20 | 50 to 75 | ≥ 75 | CCCCNc1cc(C(=O)O)cc(S(=N)(=O)Nc2cccc(OC)c2)c1Oc1ccccc1 (centres unmarked) [Compound 65, 3-(butylamino)-5-[(3-methoxyanilino)sulfonimidoyl]-4-phenoxy-benzoic acid]
